How the values were obtained:
Experiment in all cases: Test D pre-/postemergence plant response
Assay type in all cases: in vivo
[1] = tested on: Italian ryegrass (Lolium multiflorum)
Outline: (§1)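 Visual 0–100 scoring (100 = complete control) versus untreated controls after 14–21 greenhouse days. Compounds, formulated in surfactant-containing non-phytotoxic solvent, were applied preemergence to seeded loam/sand and postemergence to 2–18 cm plants (1–4 leaves).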

[2] = tested on: dayflower (Virginia (VA) dayflower, Commelina virginica)
Outline: as §1

[3] = tested on: bermudagrass (Cynodon dactylon)
Outline: as §1

[4] = tested on: black mustard (Brassica nigra)
Outline: as §1

[5] = tested on: spanishneedles (Bidens bipinnata)
Outline: as §1

[6] = tested on: Surinam grass (Brachiaria decumbens)
Outline: as §1

[7] = tested on: groundsel (common groundsel, Senecio vulgaris); details: Postemergence
Outline: as §1

[8] = tested on: mallow (common mallow, Malva sylvestris)
Outline: as §1

[9] = tested on: field bindweed (Convolvulus arvensis)
Outline: as §1

[10] = tested on: guineagrass (Panicum maximum)
Outline: as §1

[11] = tested on: Russian thistle (Salsola kali)
Outline: as §1

[12] = tested on: quackgrass (Elytrigia repens)
Outline: as §1

[13] = tested on: sandbur (southern sandbur, Cenchrus echinatus)
Outline: as §1

[14] = tested on: naked crabgrass (Digitaria nuda)
Outline: as §1

[15] = tested on: signalgrass (broadleaf signalgrass, Brachiaria platyphylla)
Outline: as §1

[16] = Postemergence, 16 g ai/ha, scale 0 to 100
[17] = Postemergence, 31 g ai/ha, scale 0 to 100
[18] = Postemergence, 125 g ai/ha, scale 0 to 100 (0 no effect, 100 complete control)
[19] = Postemergence, 62 g ai/ha, scale 0 to 100 (0 no effect, 100 complete control)
[20] = Preemergence, 16 g ai/ha, scale 0 to 100, 0 no effect, 100 complete control
[21] = Preemergence, 31 g ai/ha, scale 0 to 100 (0 no effect, 100 complete control)
[22] = Preemergence, 125 g ai/ha, scale 0 to 100
[23] = Preemergence, 62 g ai/ha, scale 0 to 100
[24] = Postemergence, 31 g ai/ha, scale 0 to 100 (0 no effect, 100 complete control)

O=C1CCCC(O)=C1C(=O)c1cnc(C2CC2)n(-c2ccccc2)c1=O [Compound 87]
95: Plant response rating, Sandbur [13, 22]
35: Plant response rating, Dayflower, VA [2, 17] | Plant response rating, Russian Thistle [11, 18] | Plant response rating, Sandbur [13, 18]
30: Plant response rating, Ryegrass, Italian [1, 22] | Plant response rating, Surinam Grass [6, 16] | Plant response rating, Guineagrass [10, 18] | Plant response rating, Signalgrass [15, 17]
75: Plant response rating, Black Mustard [4, 20] | Plant response rating, Black Mustard [4, 21] | Plant response rating, Guineagrass [10, 22] | Plant response rating, Russian Thistle [11, 21] | Plant response rating, Crabgrass, Naked [14, 18] | Plant response rating, Signalgrass [15, 22]
70: Plant response rating, Dayflower, VA [2, 18] | Plant response rating, Bermudagrass [3, 19] | Plant response rating, Spanishneedles [5, 18] | Plant response rating, Mallow [8, 18] | Plant response rating, Mallow [8, 19] | Plant response rating, Field Bindweed [9, 22] | Plant response rating, Crabgrass, Naked [14, 19]
40: Plant response rating, Black Mustard [4, 16] | Plant response rating, Surinam Grass [6, 17] | Plant response rating, Surinam Grass [6, 18] | Plant response rating, Surinam Grass [6, 19] | Plant response rating, Mallow [8, 16] | Plant response rating, Field Bindweed [9, 18] | Plant response rating, Field Bindweed [9, 23]
20: Plant response rating, Guineagrass [10, 17] | Plant response rating, Guineagrass [10, 19] | Plant response rating, Sandbur [13, 19] | Plant response rating, Signalgrass [15, 16]
80: Plant response rating, Mallow [8, 23] | Plant response rating, Crabgrass, Naked [14, 21]
25: Plant response rating, Field Bindweed [9, 19] | Plant response rating, Sandbur [13, 21]
15: Plant response rating, Field Bindweed [9, 17]
60: Plant response rating, Dayflower, VA [2, 19] | Plant response rating, Spanishneedles [5, 16] | Plant response rating, Spanishneedles [5, 17] | Plant response rating, Spanishneedles [5, 19] | Plant response rating, Mallow [8, 17] | Plant response rating, Crabgrass, Naked [14, 17] | Plant response rating, Signalgrass [15, 18] | Plant response rating, Signalgrass [15, 19]
98: Plant response rating, Bermudagrass [3, 23] | Plant response rating, Bermudagrass [3, 22] | Plant response rating, Spanishneedles [5, 22] | Plant response rating, Groundsel ([7]; 16 g ai/ha, scale 0 to 100) | Plant response rating, Groundsel ([7]; 31 g ai/ha, scale 0 to 100)
50: Plant response rating, Surinam Grass [6, 21] | Plant response rating, Guineagrass [10, 23] | Plant response rating, Russian Thistle [11, 20] | Plant response rating, Crabgrass, Naked [14, 16]
100: Plant response rating, Black Mustard [4, 18] | Plant response rating, Black Mustard [4, 19] | Plant response rating, Black Mustard [4, 23] | Plant response rating, Black Mustard [4, 22] | Plant response rating, Surinam Grass [6, 22] | Plant response rating, Groundsel ([7]; 125 g ai/ha, scale 0 to 100 (0 no effect, 100 complete control)) | Plant response rating, Groundsel ([7]; 62 g ai/ha, scale 0 to 100 (0 no effect, 100 complete control)) | Plant response rating, Mallow [8, 22] | Plant response rating, Russian Thistle [11, 22] | Plant response rating, Crabgrass, Naked [14, 23] | Plant response rating, Crabgrass, Naked [14, 22]
5: Plant response rating, Ryegrass, Italian [1, 18] | Plant response rating, Quackgrass [12, 18] | Plant response rating, Sandbur [13, 16] | Plant response rating, Sandbur [13, 17]
0: Plant response rating, Ryegrass, Italian [1, 16] | Plant response rating, Ryegrass, Italian [1, 17] | Plant response rating, Ryegrass, Italian [1, 19] | Plant response rating, Ryegrass, Italian [1, 20] | Plant response rating, Ryegrass, Italian [1, 21] | Plant response rating, Dayflower, VA [2, 20] | Plant response rating, Dayflower, VA [2, 21] | Plant response rating, Spanishneedles [5, 20] | Plant response rating, Surinam Grass [6, 20] | Plant response rating, Field Bindweed [9, 16] | Plant response rating, Field Bindweed [9, 20] | Plant response rating, Field Bindweed [9, 21] | Plant response rating, Guineagrass [10, 20] | Plant response rating, Guineagrass [10, 21] | Plant response rating, Quackgrass [12, 16] | Plant response rating, Quackgrass [12, 17] | Plant response rating, Quackgrass [12, 19] | Plant response rating, Quackgrass [12, 20] | Plant response rating, Quackgrass [12, 21] | Plant response rating, Quackgrass [12, 22] | Plant response rating, Sandbur [13, 20] | Plant response rating, Signalgrass [15, 20] | Plant response rating, Signalgrass [15, 21]
65: Plant response rating, Dayflower, VA [2, 23] | Plant response rating, Dayflower, VA [2, 22] | Plant response rating, Bermudagrass [3, 16] | Plant response rating, Bermudagrass [3, 24] | Plant response rating, Bermudagrass [3, 20] | Plant response rating, Bermudagrass [3, 21] | Plant response rating, Black Mustard [4, 24] | Plant response rating, Spanishneedles [5, 21]
10: Plant response rating, Dayflower, VA [2, 16] | Plant response rating, Guineagrass [10, 16]
85: Plant response rating, Bermudagrass [3, 18]

Reference: patent publication US8952024B2, “Herbicidal pyrimidone derivatives” (E I du Pont de Nemours and Company, priority 2009, dated 2015)
